# According to US20140142106A1, “METHOD FOR TREATING PERITONEAL FIBROSIS” (TAIPEI VETERANS GENERAL HOSPITAL, priority 2012, published 2014):
# What was measured:
# [1] = test system: MGO-induced peritoneal fibrosis; experiment: MGO-induced peritoneal fibrosis in rats, effects of CBR ligands (histology, morphometry); format: in vivo, Sprague-Dawley (SD) rats; conditions: 1 mg/kg/day in PDF i.p., n=6; for MGO-induced peritoneal thickening: 3 days pretreatment then 10 days with 6 mM MGO, Masson's trichrome
# Description: (§1) All animal experiments were performed following the guidelines of the Institutional Committee for Animal Experimentation of Taipei Veterans General Hospital. Five week-old male Sprague-Dawley (SD) rats were purchased from the Laboratory Animal Center of National Yang-Ming University. Peritoneal dialysis fluid (PDF) was prepared according to Hirahara et al. [10;22], containing 2.5% glucose, 100 mmol/L NaCl, 35 mmol/L sodium lactate, 2 mmol/L CaCl2, and 0.7 mmol/L MgCl2, in a pH of 5.0. To test MGO effects, fifty mL/kg of PDF containing 0, 3, 6, 12 mM MGO (Sigma, St. Louis, Mo., USA) were injected intra-peritoneally for ten consecutive days. Dimethyl sulfoxide (DMSO) (Sigma, St. Louis, Mo., USA) was used as the solvent of MGO. For investigation of the effects of CBR ligands, SD rats were pretreated with PDF containing either a selective CB1R antagonist, AM281 (Alexis Biochemicals, Enzo Life Sciences, Farmingdale, N.Y., USA) (1 mg/kg/day) or a selective CB2R agonist, AM1241 (Sigma, St. Louis, Mo., USA) (1 mg/kg/day) for 3 days followed by continuous treatment of PDF containing respective CBR ligands (AM281 or AM1241) and 6 mM MGO for 10 days. Animals receiving PDF containing DMSO vehicle (without MGO) were used as control (n=6/group). All animals were euthanized at the end of experiments by exsanguinations under general anesthesia.
# Certain sections of rat peritoneal tissues were frozen at −80° C. for immunofluorescent analysis, while the remainder were fixed in a neutral formalin solution and then embedded in paraffin for histological analysis. For immunofluorescent staining of CBR, rat brain and spleen were used as the positive control of CB1R and CB2R, respectively. For peritoneal thickness quantification, parietal peritoneum sized 1.0×0.5 cm were sampled from four separate peritoneal sites of each rat, including right ventral, left ventral, right lateral, and left lateral abdomen. For each sampling site, the peritoneal thickness was averaged from 15 evenly measured points. Tissue sections were stained with Masson's trichrome to quantify peritoneal fibrosis. The number of mesothelial cells was determined by morphometric method. The hematoxylin and eosin-stained sections were digitalized using an Aperio ScanScope slide scanner (Aperio, San Diego, Calif., USA) at its highest resolution. The mean mesothelial cells per mm surface of peritoneal membrane were counted from 15 points in each peritoneal tissue section from four separate peritoneal areas per animal. The peritoneal angiogenesis was quantified as described by Patel et al.. […] The mean vessels per mm peritoneal membrane were counted from 15 points in each peritoneal tissue section from four separate peritoneal areas per animal.
# [2] = test system: TGF-β1, VEGF, and Snail mRNA in rat peritoneal tissue; experiment: RT-PCR of rat peritoneal tissue after MGO treatment; format: in vivo, Sprague-Dawley (SD) rats; conditions: representative PCR
# Description: as §1
# (§2) For mRNA expression analysis of peritoneal tissue TGF-β1, VEGF, and Snail, the rat peritoneum was resected and incubated with trypsin at 37° C. for 30 minutes. The mesothelium was then scratched from peritoneal surface and collected for reverse transcription-polymerase chain reaction (RT-PCR). In the mesothelial cell culture, the mRNA expression of CB1R, CB2R, and type I collagen were also assessed by the PCR analysis. Total RNA was extracted with TRIzol (Invitrogen, Carlsbad, Calif., USA). Contaminated genomic DNA was removed with RNAse-free DNAse (Ambion, Austin, Tex., USA) following the manufacturer's protocol. […]
# [3] = test system: MeT-5A human mesothelial cell line; experiment: TGF-β1-treated MeT-5A mesothelial cells: morphology, immunofluorescent staining; format: cell-based
# Description: (§3) The MeT-5A human mesothelial cell line, obtained from the American Type Culture Collection (ATCC, Manassas, Va., USA), was cultured in DMEM (Biological Industries, Israel) containing 15% fetal bovine serum (Thermo Scientific, Waltham, Mass., USA), and 1% penicillin/streptomycin/L-glutamine (Biological Industries, Israel). The primary culture of human peritoneal mesothelial cells (HPMC) were prepared as previously described. All patient materials were processed following the ethics regulations of the Institutional Review Board of Taipei Veterans General Hospital.
# (§4) To assess the effects of CB1R antagonist on mesothelial cells, we pretreated the MeT-5A cells and RPMC with 5 μM of AM281 for 1 hour, and followed by simultaneous AM281 and TGF-β1 (R&D systems, Minneapolis, Minn., USA) treatment for 5 days. Various TGF-β1 concentrations (0.1 to 1.0 ng/mL) were used. In the CB2R experiment, AM1241 was used instead to test MeT-5A cells and HPMC.
# For immunofluorescent studies, we grew mesothelial cells in slide flasks (Lab-Tek II; Nalge Nunc. Naperville, Ill., USA).
# Cells were observed using a confocal LASER microscope (Leica, Wetzlar, Germany), and fluorescent intensity was analyzed using an image-processing software (AlphaEaseFC 4.0, Alpha Innotech, Santa Clara, Calif., USA). The cytoplasmic fluorescent intensity of individual cell is defined as integrated density value (IDV) of selected cytoplasmic area; the average fluorescent intensity of an image field is defined as average density value (ADV=total IDV/total cytoplasmic area).
# [4] = test system: rat peritoneal mesothelial cells (RPMC); experiment: TGF-β1-treated rat peritoneal mesothelial cell (RPMC) culture: morphology; format: cell-based; conditions: 5 μM, 1 hour pretreatment, then with TGF-β1 for 5 days
# Description: The primary culture of rat peritoneal mesothelial cells (RPMC) were isolated from 5-week-old male SD rats. Trypsin-EDTA (Gibco, Grand Island, N.Y., USA) (1.25%; 100 mL/kg) was injected intra-peritoneally and was then aspirated after a 2-hour dwelling. The aspirate was centrifuged for 10 minutes at 1500 rpm, and was washed with phosphate buffered saline, and then cultured in DMEM containing 10% fetal bovine serum, and 1% penicillin/streptomycin/L-glutamine.
# as §4
# TGF-β1-activated PI3K = experiment: Western blot of PI3K in MeT-5A cells; format: cell-based, human; conditions: p110 catalytic subunit
# Description: as §4
# Phosphatidyl inositol 3 kinase (PI3K) activity in the MeT-5A cells was assessed by Western blot. Cell lysates were subjected to SDS-PAGE and probed with primary antibodies against the p110 catalytic subunit of PI3K (Upstate Millipore, Billerica, Mass., USA) or β-actin (Amersham Life Science, Buckinghamshire, UK).
# [5] = test system: human peritoneal mesothelial cells (HPMC); experiment: PCR analysis of type I collagen in TGF-β1-treated HPMC; format: cell-based; conditions: low TGF-β1 concentrations (0.01-0.05 ng/mL), differences not statistically significant
# Description: as §3, §4
# as §2, with “analysis.” for “analysis. Total RNA was extracted with TRIzol (Invitrogen, Carlsbad, Calif., USA). Contaminated genomic DNA was removed with RNAse-free DNAse (Ambion, Austin, Tex., USA) following the manufacturer's protocol.”
# rat peritoneum = experiment: Intra-peritoneal PDF containing MGO in rats (peritoneal injury); format: in vivo, Sprague-Dawley (SD) rats; conditions: n=6
# Description: All animal experiments were performed following the guidelines of the Institutional Committee for Animal Experimentation of Taipei Veterans General Hospital. Five week-old male Sprague-Dawley (SD) rats were purchased from the Laboratory Animal Center of National Yang-Ming University. Peritoneal dialysis fluid (PDF) was prepared according to Hirahara et al. [10;22], containing 2.5% glucose, 100 mmol/L NaCl, 35 mmol/L sodium lactate, 2 mmol/L CaCl2, and 0.7 mmol/L MgCl2, in a pH of 5.0. To test MGO effects, fifty mL/kg of PDF containing 0, 3, 6, 12 mM MGO (Sigma, St. Louis, Mo., USA) were injected intra-peritoneally for ten consecutive days. Dimethyl sulfoxide (DMSO) (Sigma, St. Louis, Mo., USA) was used as the solvent of MGO. […]
# Certain sections of rat peritoneal tissues were frozen at −80° C. for immunofluorescent analysis, while the remainder were fixed in a neutral formalin solution and then embedded in paraffin for histological analysis. […] For peritoneal thickness quantification, parietal peritoneum sized 1.0×0.5 cm were sampled from four separate peritoneal sites of each rat, including right ventral, left ventral, right lateral, and left lateral abdomen. For each sampling site, the peritoneal thickness was averaged from 15 evenly measured points. […] The number of mesothelial cells was determined by morphometric method. […]
# [6] = humans, long-term basis; cited from earlier work
# [7] = test system: CB1R and CB2R expression in MeT-5A cells; experiment: PCR assessment of CB1R and CB2R expression after TGF-β1 treatment; format: cell-based, human; conditions: exogenous TGF-β1, RT-PCR
# Description: as §3
# as §2, with “protocol. First-strand cDNA was synthesized from total RNA with Superscript™ first-strand cDNA synthesis system for RT-PCR (Invitrogen, Carlsbad, Calif., USA) using Oligo(dT) as primers. GAPDH was used as control.” for “protocol.”
# [8] = in the presence of TGF-β1, immunofluorescent staining
molecule,measurement,setting,value
"Cc1c(C(=O)NN2CCOCC2)nn(-c2ccc(Cl)cc2Cl)c1-c1ccc(I)cc1 [AM281, N-(morpholin-1-yl)-1-(2,4-dichlorophenyl)-5-(4-iodophenyl)-4-methyl-1H-pyrazole-3-carboxamide]",MGO-induced mesothelial cell detachment,[1]; 6 mM MGO 10 days,attenuated
same,MGO-induced angiogenesis,"[1]; 6 mM MGO 10 days, α-SMA staining",attenuated
same,MGO-induced peritoneal thickening,[1],significantly attenuated
same,up-regulated Snail after MGO treatment,[2],attenuated
same,up-regulated TGF-β1 after MGO treatment,[2],attenuated
same,up-regulated VEGF after MGO treatment,[2],attenuated
same,TGF-β1-induced cell elongation,"[3]; 5 μM, 1 hour pretreatment, then with TGF-β1 for 5 days",reduces
same,expression of E-cadherin,[3]; [8],preserving
same,expression of cytokeratin 8/18,[3]; [8],preserving
same,type I collagen synthesis,[3]; [8],inhibited
same,TGF-β1-induced cell elongation,[4],reduces
same,TGF-β1-activated PI3K,TGF-β1-activated PI3K,suppressed
"CN1CCCCC1Cn1cc(C(=O)c2cc([N+](=O)[O-])ccc2I)c2ccccc21 (stereo not drawn) [AM1241, (2-iodo-5-nitrophenyl)-[1-[(1-methylpiperidin-2-yl)methyl]indol-3-yl]methanone]",MGO-induced peritoneal thickening,[1],significantly attenuated
same,type I collagen synthesis,[5],tended to suppress
"CC(=O)C=O [MGO, methylglyoxal]",peritoneal thickness,"rat peritoneum; PDF containing 0, 3, 6, 12 mM MGO i.p. for ten consecutive days",significant increase
same,surface mesothelial cells,"rat peritoneum; higher concentration of MGO (6-12 mM), i.p. ten days",prominent loss
C=C(C)[C@@H]1CCC(C)=C[C@H]1c1c(O)cc(CCCCC)cc1O [cannabidiol],tolerability on long-term administration,[6],well-tolerated without adverse effects
TGF-β1: exogenous TGF-β1 (R&D systems) used to treat mesothelial cells,"CBR levels (CB1R, CB2R mRNA)",[7],no significant effect
